In patent US10479795B2 (Incyte Corporation, priority 2016, dated 2019):
Where a name gives a salt, the structure may show the parent alone. Read-outs that look alike come from different tables or passages of the source.

Assays:
[1] = tested on: Phosphorylated Ribosomal Protein S6 (RPS6); assay: THP-1 RPS6 ELISA Assay; type: cell-based, Human; details: THP-1 cells, read-out: PI3Kγ_THP1_RPS6_ELISA IC50
Method in brief: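 Serum-starved THP-1 cells were preincubated with a concentration range of compound for 2 h at 37 °C, then stimulated with 10 nM MCP-1 for 15 min. Phospho-RPS6 in lysates was quantified by ELISA at 450 nm. IC50 came from percent inhibition versus log inhibitor concentration.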

[2] = target: PI3Kγ (p110γ) Recombinant Human Protein (Homo sapiens (Human), UniProt P48736); assay: PI3K-γ Scintillation Proximity Assay; type: biochemical; details: read-out: PI3Kγ IC50
Chain of PI3Kγ (p110γ) Recombinant Human Protein (P48736 whole entry): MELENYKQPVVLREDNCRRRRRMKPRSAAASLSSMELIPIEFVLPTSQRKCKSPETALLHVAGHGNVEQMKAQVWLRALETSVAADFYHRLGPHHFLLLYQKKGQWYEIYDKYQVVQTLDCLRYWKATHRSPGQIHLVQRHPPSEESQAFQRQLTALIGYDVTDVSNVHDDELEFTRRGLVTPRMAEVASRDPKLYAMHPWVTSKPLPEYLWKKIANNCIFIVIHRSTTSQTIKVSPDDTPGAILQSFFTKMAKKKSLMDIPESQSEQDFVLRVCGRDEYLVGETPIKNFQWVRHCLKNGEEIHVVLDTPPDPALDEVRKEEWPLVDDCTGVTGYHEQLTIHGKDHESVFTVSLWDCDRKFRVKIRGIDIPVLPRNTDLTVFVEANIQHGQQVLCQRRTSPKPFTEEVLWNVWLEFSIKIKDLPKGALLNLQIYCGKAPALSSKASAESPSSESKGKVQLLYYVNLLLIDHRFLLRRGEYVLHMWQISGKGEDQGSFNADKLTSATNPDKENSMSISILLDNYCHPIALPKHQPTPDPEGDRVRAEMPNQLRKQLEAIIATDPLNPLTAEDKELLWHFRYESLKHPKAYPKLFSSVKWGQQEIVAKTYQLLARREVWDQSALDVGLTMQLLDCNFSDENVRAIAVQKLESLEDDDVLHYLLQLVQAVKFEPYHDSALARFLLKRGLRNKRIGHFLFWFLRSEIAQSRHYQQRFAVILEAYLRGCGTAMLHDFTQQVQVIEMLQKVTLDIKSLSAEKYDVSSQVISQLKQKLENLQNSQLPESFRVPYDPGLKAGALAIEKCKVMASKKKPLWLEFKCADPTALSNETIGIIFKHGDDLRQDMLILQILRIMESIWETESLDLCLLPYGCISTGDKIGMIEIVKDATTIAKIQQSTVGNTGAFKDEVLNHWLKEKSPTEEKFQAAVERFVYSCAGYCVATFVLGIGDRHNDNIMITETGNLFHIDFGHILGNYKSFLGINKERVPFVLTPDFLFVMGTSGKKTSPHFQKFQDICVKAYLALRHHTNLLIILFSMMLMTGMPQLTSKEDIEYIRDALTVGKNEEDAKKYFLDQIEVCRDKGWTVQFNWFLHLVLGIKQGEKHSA
Method in brief: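 Recombinant human p110γ assayed at room temperature in 20 mM MOPS pH 6.7, 10 mM MgCl2, 5 mM DTT, 0.03% CHAPS, 2% DMSO, with 20 μM PIP2 and 2 μM ATP plus [γ-33P]ATP. Product captured on WGA SPA beads overnight and counted; IC50 fitted from % of solvent-control activity versus log inhibitor concentration.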

[3] = target: PI3Kδ (p110δ/p85α) Recombinant Human Protein (Homo sapiens (Human), UniProt O00329); assay: PI3Kδ Scintillation Proximity Assay; type: biochemical
Chain of PI3Kδ (p110δ/p85α) Recombinant Human Protein (O00329 whole entry): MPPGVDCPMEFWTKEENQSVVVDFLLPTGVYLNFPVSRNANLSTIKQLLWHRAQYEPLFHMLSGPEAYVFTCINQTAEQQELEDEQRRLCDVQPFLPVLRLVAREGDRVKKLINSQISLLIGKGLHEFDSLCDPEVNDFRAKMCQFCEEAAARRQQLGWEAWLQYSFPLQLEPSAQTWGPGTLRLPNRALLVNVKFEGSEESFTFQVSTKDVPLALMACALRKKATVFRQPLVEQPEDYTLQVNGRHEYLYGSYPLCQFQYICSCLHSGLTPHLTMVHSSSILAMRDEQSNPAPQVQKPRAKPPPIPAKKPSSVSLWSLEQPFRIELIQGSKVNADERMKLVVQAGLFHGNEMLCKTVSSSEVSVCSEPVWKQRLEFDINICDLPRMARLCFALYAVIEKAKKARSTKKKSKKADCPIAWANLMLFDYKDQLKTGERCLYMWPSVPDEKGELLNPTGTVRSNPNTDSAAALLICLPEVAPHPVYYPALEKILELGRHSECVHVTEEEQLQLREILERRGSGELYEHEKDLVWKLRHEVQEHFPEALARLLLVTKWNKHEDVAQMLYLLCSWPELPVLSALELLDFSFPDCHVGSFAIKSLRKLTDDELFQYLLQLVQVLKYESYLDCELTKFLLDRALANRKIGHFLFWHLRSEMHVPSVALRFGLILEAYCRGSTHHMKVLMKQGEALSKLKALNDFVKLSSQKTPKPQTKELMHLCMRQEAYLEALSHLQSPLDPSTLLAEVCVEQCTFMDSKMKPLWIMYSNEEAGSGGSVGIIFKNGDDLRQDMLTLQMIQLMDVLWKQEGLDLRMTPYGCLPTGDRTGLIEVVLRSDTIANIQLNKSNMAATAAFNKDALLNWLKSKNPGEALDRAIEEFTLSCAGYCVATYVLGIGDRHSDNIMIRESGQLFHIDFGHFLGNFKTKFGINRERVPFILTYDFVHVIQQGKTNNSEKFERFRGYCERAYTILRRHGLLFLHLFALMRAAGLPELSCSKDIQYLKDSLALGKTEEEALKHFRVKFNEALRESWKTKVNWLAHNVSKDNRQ
Chain of PI3Kδ (p110δ/p85α) Recombinant Human Protein (P27986 whole entry partner): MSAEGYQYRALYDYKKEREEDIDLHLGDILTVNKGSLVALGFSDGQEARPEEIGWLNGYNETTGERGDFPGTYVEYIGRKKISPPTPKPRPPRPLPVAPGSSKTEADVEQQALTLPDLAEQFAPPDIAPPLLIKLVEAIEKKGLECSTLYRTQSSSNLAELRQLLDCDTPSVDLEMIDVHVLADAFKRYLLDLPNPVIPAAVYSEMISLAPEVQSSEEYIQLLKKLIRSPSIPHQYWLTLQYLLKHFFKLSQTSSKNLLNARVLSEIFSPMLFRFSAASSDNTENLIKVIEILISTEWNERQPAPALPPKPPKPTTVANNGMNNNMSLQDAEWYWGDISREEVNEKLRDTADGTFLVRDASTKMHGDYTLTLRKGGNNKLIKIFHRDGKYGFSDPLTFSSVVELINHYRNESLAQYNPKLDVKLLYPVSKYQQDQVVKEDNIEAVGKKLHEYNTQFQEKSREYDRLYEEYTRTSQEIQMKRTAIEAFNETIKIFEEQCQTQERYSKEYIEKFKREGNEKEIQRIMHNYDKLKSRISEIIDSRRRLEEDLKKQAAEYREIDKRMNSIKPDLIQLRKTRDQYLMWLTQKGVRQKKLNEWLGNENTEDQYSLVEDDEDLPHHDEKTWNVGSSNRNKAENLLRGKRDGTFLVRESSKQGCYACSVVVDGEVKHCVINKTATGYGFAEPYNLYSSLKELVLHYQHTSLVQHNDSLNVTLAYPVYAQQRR
Method in brief: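 Recombinant human p110δ/p85α (3.4 nM) phosphorylates 20 μM di-octanoyl PIP2 using 2 μM ATP spiked with [γ-33P]ATP, 120 min, room temperature, pH 6.7, 2% DMSO. Product measured by scintillation proximity; IC50 from dose-response fit.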

IC50 ([1]; Homo sapiens) [nM]	IC50 [2] [nM]	IC50 [3] [nM]	SMILES	IC50 [1] [nM]
< 100	< 100	100 to 500	O=C(O)C(F)(F)F.[2H]C([2H])([2H])c1ccc(S(=O)(=O)NC23CCC(C#N)(CC2)C3)cc1-c1cnc2c(N)ncnn12 [Example 362, 3-(4-Aminoimidazo[2,1-f][1,2,4]triazin-7-yl)-N-(4-cyanobicyclo[2.2.1]heptan-1-yl)-4-(methyl-d3)benzenesulfonamide trifluoroacetate salt]	
	< 100	500 to 2000	Cc1cc(C)c(S(=O)(=O)NC23CCC(CO)(C2)C3)cc1-c1cnc2c(N)ncnn12 [Example 363, 5-(4-Aminoimidazo[1,2-f][1,2,4]triazin-7-yl)-N-(4-(hydroxymethyl)bicyclo[2.1.1]hexan-1-yl)-2,4-dimethylbenzenesulfonamide]	100 to 500
	< 100	100 to 500	N#CC12CCC(NS(=O)(=O)c3cc(-c4cnc5c(N)ncnn45)ccc3F)(C1)C2 [Example 365, 5-(4-Aminoimidazo[1,2-f][1,2,4]triazin-7-yl)-N-(4-cyanobicyclo[2.1.1]hexan-1-yl)-2-fluorobenzenesulfonamide trifluoroacetate salt]	100 to 500
500 to 1000	< 100	500 to 2000	[2H]C([2H])([2H])c1ccc(S(=O)(=O)NC23CCC(O)(C2)C3)cc1-c1cnc2c(N)ncnn12 [Example 374, 3-(4-Aminoimidazo[2,1-f][1,2,4]triazin-7-yl)-N-(4-hydroxybicyclo[2.1.1]hexan-1-yl)-4-(methyl-d3)benzenesulfonamide]	
	< 100	100 to 500	Cc1c(F)cc(S(=O)(=O)NC23CCC(CO)(CC2)OC3)cc1-c1cnc2c(N)ncnn12 [Example 375, 3-(4-aminoimidazo[1,2-f][1,2,4]triazin-7-yl)-5-fluoro-N-(1-(hydroxymethyl)-2-oxabicyclo[2.2.2]octan-4-yl)-4-methylbenzenesulfonamide trifluoroacetate salt]	< 100
100 to 500	< 100	100 to 500	Cc1cn2c(-c3cccc(S(=O)(=O)NC45CCC(CO)(C4)C5)c3)cnc2c(N)n1 [Example 381, 3-(8-Amino-6-methylimidazo[1,2-a]pyrazin-3-yl)-N-(4-(hydroxymethyl)bicyclo[2.1.1]hexan-1-yl)benzenesulfonamide]	
< 100	< 100	< 100	O=C(O)C(F)(F)F.[2H]C([2H])([2H])c1ccc(S(=O)(=O)NC23CCC(CO)(C2)C3)cc1-c1cnc2c(N)nc(C)cn12 [Example 383, 3-(8-Amino-6-methylimidazo[1,2-a]pyrazin-3-yl)-N-(4-(hydroxymethyl)bicyclo[2.1.1]hexan-1-yl)-4-(methyl-d3)benzenesulfonamide trifluoroacetate salt]	

The next lines start with the compound.

SMILES	IC50 ([1]; Homo sapiens) [nM]	IC50 [2] [nM]	IC50 [3] [nM]	IC50 [1] [nM]
Cc1ccc(S(=O)(=O)N2CCC[C@H]2CO)cc1-c1cnc2c(N)nc(C(F)(F)F)nn12 [Example 347, (S)-(1-((3-(4-amino-2-(trifluoromethyl)imidazo[2,1-f][1,2,4]triazin-7-yl)-4-methylphenyl)sulfonyl)pyrrolidin-2-yl)methanol]	< 100	< 100	100 to 500	
Cc1ccc(S(=O)(=O)N2CC3(CCN(C)C3=O)C2)cc1-c1cnc2c(N)nc(C(F)(F)F)nn12 [Example 348, 2-((3-(4-amino-2-(trifluoromethyl)imidazo[2,1-f][1,2,4]triazin-7-yl)-4-methylphenyl)sulfonyl)-6-methyl-2,6-diazaspiro[3.4]octan-5-one]	100 to 500	< 100	< 100	
Cc1ccc(S(=O)(=O)N2CC3C(O)C2CN3C2CCCC2C#N)cc1-c1cnc2c(N)nc(C(F)(F)F)nn12 (stereo not drawn) [Example 353, 2-(5-((3-(4-amino-2-(trifluoromethyl)imidazo[2,1-f][1,2,4]triazin-7-yl)-4-methylphenyl)sulfonyl)-7-hydroxy-2,5-diazabicyclo[2.2.1]heptan-2-yl)cyclopentane-1-carbonitrile]	> 1000	< 100	500 to 2000	
Cc1ccc(S(=O)(=O)N2CC3C(O)C2CN3C2CC(C#N)C2)cc1-c1cnc2c(N)nc(C(F)(F)F)nn12 (stereo not drawn) [Example 354, 3-(5-((3-(4-amino-2-(trifluoromethyl)imidazo[2,1-f][1,2,4]triazin-7-yl)-4-methylphenyl)sulfonyl)-7-hydroxy-2,5-diazabicyclo[2.2.1]heptan-2-yl)cyclobutane-1-carbonitrile]	> 1000	< 100	500 to 2000	
Cc1ccc(S(=O)(=O)N2CC3NCC2C3O)cc1-c1cnc2c(N)nc(C(F)(F)F)nn12 (stereo not drawn) [Example 355, 2-((3-(4-amino-2-(trifluoromethyl)imidazo[2,1-f][1,2,4]triazin-7-yl)-4-methylphenyl)sulfonyl)-2,5-diazabicyclo[2.2.1]heptan-7-ol]	100 to 500	< 100	100 to 500	
Cc1ccc(S(=O)(=O)N[C@H]2CC[C@H](CO)OC2)cc1-c1cnc2c(N)nc(C(F)(F)F)nn12 [Example 356, 3-(4-amino-2-(trifluoromethyl)imidazo[2,1-f][1,2,4]triazin-7-yl)-N-((3S,6R)-6-(hydroxymethyl)tetrahydro-2H-pyran-3-yl)-4-methylbenzenesulfonamide]	< 100	< 100	100 to 500	
C[C@]1(O)CC[C@H](NS(=O)(=O)c2cc(-c3cnc4c(N)nccn34)ccc2F)CC1 [Example 359, 5-(8-aminoimidazo[1,2-a]pyrazin-3-yl)-2-fluoro-N-((1r,4r)-4-hydroxy-4-methylcyclohexyl)benzenesulfonamide]		< 100	100 to 500	> 1000
Nc1nccn2c(-c3ccc(F)c(S(=O)(=O)NCC4(CO)CCOCC4)c3)cnc12 [Example 360, 5-(8-aminoimidazo[1,2-a]pyrazin-3-yl)-2-fluoro-N-((4-(hydroxymethyl)tetrahydro-2H-pyran-4-yl)methyl)benzenesulfonamide]	> 1000	100 to 500	100 to 500	
N#CC12CCC(NS(=O)(=O)c3cccc(-c4cnc5c(N)ncnn45)c3)(C1)C2 [Example 364, 3-(4-Aminoimidazo[1,2-f][1,2,4]triazin-7-yl)-N-(4-cyanobicyclo[2.1.1]hexan-1-yl)benzenesulfonamide trifluoroacetate salt]		< 100	100 to 500	< 100
Nc1ncnn2c(-c3ccc(Cl)c(S(=O)(=O)NC45CCC(CO)(C4)C5)c3)cnc12 [Example 367, 5-(4-Aminoimidazo[1,2-f][1,2,4]triazin-7-yl)-2-chloro-N-(4-(hydroxymethyl)bicyclo[2.1.1]hexan-1-yl)benzenesulfonamide trifluoroacetate salt]		< 100	100 to 500	> 1000
[2H]C([2H])([2H])c1ccc(S(=O)(=O)NC23CC(CC#N)(C2)C3)cc1-c1cnc2c(N)ncnn12 [Example 371, trifluoroacetate salt]	100 to 500	< 100	100 to 500	
C[C@]1(O)CC[C@H](NS(=O)(=O)c2cc(-c3cnc4c(N)ncnn34)ccc2F)CC1 [Example 376, 5-(4-aminoimidazo[2,1-f][1,2,4]triazin-7-yl)-2-fluoro-N-((1r,4r)-4-hydroxy-4-methylcyclohexyl)benzenesulfonamide]		< 100	100 to 500	> 1000
C[C@]1(O)CC[C@H](NS(=O)(=O)c2cc(-c3cnc4c(N)ncnn34)ccc2Cl)CC1 [Example 377, 5-(4-aminoimidazo[2,1-f][1,2,4]triazin-7-yl)-2-chloro-N-((1r,4r)-4-hydroxy-4-methylcyclohexyl)benzenesulfonamide]		< 100	< 100	< 100
[2H]C([2H])([2H])c1ccc(S(=O)(=O)NC23CC(CC#N)(C2)C3)cc1-c1cnc2c(N)nc(C)cn12 [Example 378, trifluoroacetate salt]	< 100	< 100	100 to 500	
O=C(O)C(F)(F)F.[2H]C([2H])([2H])c1ccc(S(=O)(=O)NC23CCC(C#N)(C2)C3)cc1-c1cnc2c(N)nc(C)cn12 [Example 379, 3-(8-Amino-6-methylimidazo[1,2-a]pyrazin-3-yl)-N-(4-cyanobicyclo[2.1.1]hexan-1-yl)-4-(methyl-d3)benzenesulfonamide trifluoroacetate salt]	< 100	< 100	100 to 500	
Cc1cn2c(-c3ccc(F)c(S(=O)(=O)NC45CCC(C#N)(C4)C5)c3)cnc2c(N)n1 [Example 380, 5-(8-Amino-6-methylimidazo[1,2-a]pyrazin-3-yl)-N-(4-cyanobicyclo[2.1.1]hexan-1-yl)-2-fluorobenzenesulfonamide trifluoroacetate salt]	> 1000	< 100	500 to 2000	
[2H]C([2H])([2H])c1ccc(S(=O)(=O)NC23CCC(O)(C2)C3)cc1-c1cnc2c(N)nc(C)cn12 [Example 384, 3-(8-Amino-6-methylimidazo[1,2-a]pyrazin-3-yl)-N-(4-hydroxybicyclo[2.1.1]hexan-1-yl)-4-(methyl-d3)benzenesulfonamide]	500 to 1000	< 100	< 100	
